Test results taken from BindingDB's records for doi:10.1021/jm9800595 (Purdue University, 1998).

molecular target: T1, Gag-Pol polyprotein [588-1027]/[588-1147] (Human immunodeficiency virus 1, UniProt P04585); assay: HIV-1 RT Assay; settings: pH 7.9
T1 construct: 588-1027; 588-1147

| SMILES | IC50 [µM] |
| --- | --- |
| COc1c(Cl)cc(C(=CCC(=O)O)c2cc(Cl)c(OC)c(C(=O)O)c2)cc1C(=O)O [Alkenyldiarylmethane (ADAM) 27] | > 100 |
| COC(=O)c1cc(C(=CC(=O)O)c2cc(Cl)c(OC)c(C(=O)OC)c2)cc(Cl)c1OC [3,3-Dichloro-4,4-dimethoxy-5,5-bis(methoxycarbonyl)-3,3-diphenylpropenoic Acid] | > 100 |
| C=C(c1cc(Br)c(OC)c(C(=O)OC)c1)c1cc(Br)c(OC)c(C(=O)OC)c1 [methyl 3-bromo-5-{1-[3-bromo-4-methoxy-5-(methoxycarbonyl)phenyl]ethenyl}-2-methoxybenzoate] | > 100 |
| CC1(C)OC(=O)c2cc(C(=CCCO)c3cc(Cl)c4c(c3)C(=O)OC(C)(C)O4)cc(Cl)c2O1 [8-chloro-6-[1-(8-chloro-2,2-dimethyl-4-oxo-2,4-dihydro-1,3-benzodioxin-6-yl)-4-hydroxybut-1-en-1-yl]-2,2-dimethyl-2,4-dihydro-1,3-benzodioxin-4-one] | > 100 |
| COC=C(c1cc(Br)c(OC)c(C(=O)OC)c1)c1cc(Br)c(OC)c(C(=O)OC)c1 [Alkenyldiarylmethane (ADAM) 5] | > 100 |
| CC1(C)OC(=O)c2cc(C(=CCCBr)c3cc(Cl)c4c(c3)C(=O)OC(C)(C)O4)cc(Cl)c2O1 [6-[4-bromo-1-(8-chloro-2,2-dimethyl-4-oxo-2,4-dihydro-1,3-benzodioxin-6-yl)but-1-en-1-yl]-8-chloro-2,2-dimethyl-2,4-dihydro-1,3-benzodioxin-4-one] | > 100 |
| COc1c(Cl)cc(C(=CCCCC(=O)O)c2cc(Cl)c(OC)c(C(=O)O)c2)cc1C(=O)O [Alkenyldiarylmethane (ADAM) 26] | > 100 |
| COC(=O)c1cc(C(=CC(=O)OC(C)(C)C)c2cc(Cl)c(OC)c(C(=O)OC)c2)cc(Cl)c1OC [methyl 5-[3-(tert-butoxy)-1-[3-chloro-4-methoxy-5-(methoxycarbonyl)phenyl]-3-oxoprop-1-en-1-yl]-3-chloro-2-methoxybenzoate] | > 100 |
| COC(=O)c1cc(C(=CCCO)c2cc(Cl)c(OC)c(C(=O)OC)c2)cc(Cl)c1OC [methyl 3-chloro-5-{1-[3-chloro-4-methoxy-5-(methoxycarbonyl)phenyl]-4-hydroxybut-1-en-1-yl}-2-methoxybenzoate] | > 100 |
| COC(=O)c1cc(C(=CCCCC(=O)O)c2cc(Cl)c(OC)c(C(=O)OC)c2)cc(Cl)c1OC [Alkenyldiarylmethane (ADAM) 25] | > 100 |
